PubChem BioAssay AID1963962 (Molecular Pharmacology Branch, DTP, NCI, 2024)
Values belong to the compound of their own block, whether it stands above or below them.

Tested on: 967376-340-R-J2-PDC multicell spheroid viability
Assay: Anticancer human tumor 967376-340-R-J2-PDC patient-derived colon adenocarcinoma cell line growth inhibition [PI3K]
Conditions: for IC50: curve of first compound; for viability, T/C: stronger effect = lower value
Source text: Combinatorial screen of targeted agents with the PI3K inhibitors inavolisib, alpelisib, duvelisib, and copanlisib in multi-cell type tumor spheroids
A high-throughput screen of multi-cell type tumor spheroids was designed to identify active combinations of targeted small molecules and PI3K pathway inhibitors. Complex spheroids include a stromal component modeled by human endothelial cells (HUVEC) and fibroblasts modeled by human mesenchymal stem cells (MSCs). The concentration ranges selected for each drug and investigational agent were based upon clinically achievable concentrations if the clinical Cmax of the agent was known.
Compounds. The drugs and investigational agents: inavolisib (NSC800729), alpelisib (NSC765974), duvelisib (NSC772469), copanlisib (NSC816437), ipatasertib (NSC767898), afuresertib (NSC778305), talazoparib (NSC767125), sapanisertib (NSC764658), selumetinib (NSC741078), tovorafenib (DAY101, NSC766906), vemurafenib (NSC761431), ravoxertinib (NSC781343), sotorasib (NSC818433), MRTX1133 (NSC 836407), abemaciclib (NSC 768073), palbociclib (NSC758247), venetoclax (NSC 766270), SY5609 (NSC837396), enzalutamide (NSC755605), and darolutamide (NSC825331), were obtained from the National Cancer Institute (NCI) Developmental Therapeutics Program Chemical Repository. The FDA-approved anticancer drug set is available from the NCI Developmental Therapeutics Program. […] The stock solutions were prepared in dimethyl sulfoxide (DMSO, Sigma-Aldrich, St. Louis, MO, cat. D2650) at 800-fold the tested concentration and stored at -70 degrees C prior to their use. All drugs and investigational agents were tested over a range starting from a high concentration at or near the clinical Cmax and decreasing in half-log increments. If the clinical Cmax for an agent had not been determined, the highest concentration tested was 10 microM.
Cell Culture. All cells were maintained in an incubator at 37 degrees C and 5% CO2 with 95% humidity. The PDC lines were cultured according to standard operating procedures established by the NCI PDMR (https://pdmr.cancer.gov/sops/default.htm). All PDCs were thawed and cultured in Matrigel-coated flasks prepared with a working solution of 1X Ham's F-12 nutrient mix, without supplementation (Invitrogen, Waltham, MA, cat. 11765054), 100 U/mL penicillin-streptomycin (Invitrogen, cat. 15140122), and 2.5% Matrigel (Corning Inc., Corning, NY, cat. 354248) for the first three passages. The 354836-022-R-J1-PDC, 475296-252-R-J1-PDC, and 997726-040-R-J2-PDC lines were cultured in 6A media, which includes advanced DMEM/F-12 (Thermo Fisher Scientific, cat. 12634028), 10 mM HEPES (Thermo Fisher Scientific, cat. 15630080), 1X GlutaMAX supplement (Thermo Fisher Scientific, cat. 35050061), 0.1 mg/mL primocin (InvivoGen, San Diego, CA, cat. ant-pm-2), 10% defined fetal bovine serum, heat inactivated (HyClone Laboratories Inc., Logan, UT, cat. SH30070.03HI), 50% L-WRN conditioned media (ATCC, cat. CRL-3276), 1.25 mM N-Acetyl-L-cysteine (Sigma-Aldrich, cat. A9165), 10 mM nicotinamide (Sigma-Aldrich, cat. N0636), 1X B-27 supplement (Thermo Fisher Scientific, cat. 17504044), 1X N-2 supplement (Thermo Fisher Scientific, cat. 17502048), and 10 microM Y-27632 dihydrochloride (Tocris Bioscience, Bristol, United Kingdom, cat. 1254). The 624824-186-R-J2-PDC line was cultured in 6C/Colon 1B media, which includes all 6A media components plus 50 ng/mL human EGF recombinant protein (Thermo Fisher Scientific, cat. PHG0311). […]

[1] = second compound 0.00316 µM, first compound 0.0316 µM
[2] = second compound 0.00316 µM, first compound 0.1 µM
[3] = second compound 0.01 µM, first compound 0.0316 µM
[4] = second compound 0.01 µM, first compound 0.1 µM
[5] = second compound 0.0316 µM, first compound 0.0316 µM
[6] = second compound 0.0316 µM, first compound 0.1 µM
[7] = second compound 0.1 µM, first compound 0.0316 µM
[8] = second compound 0.1 µM, first compound 0.1 µM
[9] = second compound 0.316 µM, first compound 0.0316 µM
[10] = second compound 0.316 µM, first compound 0.1 µM
[11] = second compound 1 µM, first compound 0.0316 µM
[12] = second compound 1 µM, first compound 0.1 µM
[13] = second compound 0.00316 µM, first compound 0.316 µM
[14] = second compound 0.00316 µM, first compound 1 µM
[15] = second compound 0.00316 µM, first compound 3.16 µM
[16] = second compound 0.00316 µM, first compound 10 µM
[17] = second compound 0.01 µM, first compound 0.316 µM
[18] = second compound 0.01 µM, first compound 1 µM
[19] = second compound 0.01 µM, first compound 3.16 µM
[20] = second compound 0.01 µM, first compound 10 µM
[21] = second compound 0.0316 µM, first compound 0.316 µM
[22] = second compound 0.0316 µM, first compound 1 µM
[23] = second compound 0.0316 µM, first compound 3.16 µM
[24] = second compound 0.0316 µM, first compound 10 µM
[25] = second compound 0.1 µM, first compound 0.316 µM
[26] = second compound 0.1 µM, first compound 1 µM
[27] = second compound 0.1 µM, first compound 3.16 µM
[28] = second compound 0.1 µM, first compound 10 µM
[29] = second compound 0.316 µM, first compound 0.316 µM
[30] = second compound 0.316 µM, first compound 1 µM
[31] = second compound 0.316 µM, first compound 3.16 µM
[32] = second compound 0.316 µM, first compound 10 µM
[33] = second compound 1 µM, first compound 0.316 µM
[34] = second compound 1 µM, first compound 1 µM
[35] = second compound 1 µM, first compound 3.16 µM
[36] = second compound 1 µM, first compound 10 µM
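Note: spheroids exposed to agents for 7 days before read-out.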
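Throughout, for viability, T/C: luminescence used as surrogate of cell viability.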

IC50 (second compound 0.00316 µM): > 0.1 µM
IC50 (second compound 0.01 µM): > 0.1 µM
IC50 (second compound 0.0316 µM): 0.0719 µM
IC50 (second compound 0.1 µM): 0.0665 µM
IC50 (second compound 0.316 µM): 0.0207 µM
IC50 (second compound 1 µM): 0.0369 µM
SMILES: CC(C)n1nc(-c2ccc3oc(N)nc3c2)c2c(N)ncnc21 + CC(Nc1ccc2c(c1)OCCn1cc(N3C(=O)OCC3C(F)F)nc1-2)C(N)=O
viability, T/C (second compound 0.00316 µM, first compound 0.000316 µM): 82.3%
viability, T/C (second compound 0.00316 µM, first compound 0.001 µM): 69.7%
viability, T/C (second compound 0.00316 µM, first compound 0.00316 µM): 69.4%
viability, T/C (second compound 0.00316 µM, first compound 0.01 µM): 76.4%
viability, T/C [1]: 73.1%
viability, T/C [2]: 51.9%
viability, T/C (second compound 0.01 µM, first compound 0.000316 µM): 106%
viability, T/C (second compound 0.01 µM, first compound 0.001 µM): 90.1%
viability, T/C (second compound 0.01 µM, first compound 0.00316 µM): 67.3%
viability, T/C (second compound 0.01 µM, first compound 0.01 µM): 68.7%
viability, T/C [3]: 68.1%
viability, T/C [4]: 43.3%
viability, T/C (second compound 0.0316 µM, first compound 0.000316 µM): 81.1%
viability, T/C (second compound 0.0316 µM, first compound 0.001 µM): 87%
viability, T/C (second compound 0.0316 µM, first compound 0.00316 µM): 65.4%
viability, T/C (second compound 0.0316 µM, first compound 0.01 µM): 74.4%
viability, T/C [5]: 60.5%
viability, T/C [6]: 45.2%
viability, T/C (second compound 0.1 µM, first compound 0.000316 µM): 67.3%
viability, T/C (second compound 0.1 µM, first compound 0.001 µM): 79.8%
viability, T/C (second compound 0.1 µM, first compound 0.00316 µM): 91.5%
viability, T/C (second compound 0.1 µM, first compound 0.01 µM): 69.5%
viability, T/C [7]: 56.9%
viability, T/C [8]: 46.3%
viability, T/C (second compound 0.316 µM, first compound 0.000316 µM): 57.7%
viability, T/C (second compound 0.316 µM, first compound 0.001 µM): 61.9%
viability, T/C (second compound 0.316 µM, first compound 0.00316 µM): 54.6%
viability, T/C (second compound 0.316 µM, first compound 0.01 µM): 64.7%
viability, T/C [9]: 44.3%
viability, T/C [10]: 33.1%
viability, T/C (second compound 1 µM, first compound 0.000316 µM): 53.9%
viability, T/C (second compound 1 µM, first compound 0.001 µM): 54.8%
viability, T/C (second compound 1 µM, first compound 0.00316 µM): 63.8%
viability, T/C (second compound 1 µM, first compound 0.01 µM): 47.5%
viability, T/C [11]: 54%
viability, T/C [12]: 38.4%

IC50 (second compound 0.00316 µM): > 10 µM
IC50 (second compound 0.01 µM): > 10 µM
IC50 (second compound 0.0316 µM): > 10 µM
IC50 (second compound 0.1 µM): > 10 µM
IC50 (second compound 0.316 µM): 7.82 µM
IC50 (second compound 1 µM): 4.85 µM
SMILES: CC1(C)CCC(CN2CCN(c3ccc(C(=O)NS(=O)(=O)c4ccc(NCC5CCOCC5)c([N+](=O)[O-])c4)c(Oc4cnc5[nH]ccc5c4)c3)CC2)=C(c2ccc(Cl)cc2)C1 + CC(Nc1ccc2c(c1)OCCn1cc(N3C(=O)OCC3C(F)F)nc1-2)C(N)=O
viability, T/C [1]: 106%
viability, T/C [2]: 67.9%
viability, T/C [13]: 97.2%
viability, T/C [14]: 98%
viability, T/C [15]: 102%
viability, T/C [16]: 61.1%
viability, T/C [3]: 107%
viability, T/C [4]: 75.7%
viability, T/C [17]: 79.9%
viability, T/C [18]: 78.6%
viability, T/C [19]: 81.2%
viability, T/C [20]: 57.3%
viability, T/C [5]: 67.3%
viability, T/C [6]: 86.5%
viability, T/C [21]: 82.2%
viability, T/C [22]: 88.9%
viability, T/C [23]: 75.9%
viability, T/C [24]: 81.5%
viability, T/C [7]: 70.6%
viability, T/C [8]: 80.5%
viability, T/C [25]: 79.1%
viability, T/C [26]: 84.7%
viability, T/C [27]: 95.7%
viability, T/C [28]: 58.8%
viability, T/C [9]: 68.3%
viability, T/C [10]: 81.5%
viability, T/C [29]: 58.2%
viability, T/C [30]: 76.2%
viability, T/C [31]: 71.2%
viability, T/C [32]: 44.5%
viability, T/C [11]: 56.7%
viability, T/C [12]: 48.1%
viability, T/C [33]: 57.2%
viability, T/C [34]: 49.9%
viability, T/C [35]: 67.8%
viability, T/C [36]: 36.2%

IC50 (second compound 0.00316 µM): > 10 µM
IC50 (second compound 0.01 µM): > 10 µM
IC50 (second compound 0.0316 µM): > 10 µM
IC50 (second compound 0.1 µM): > 10 µM
IC50 (second compound 0.316 µM): > 10 µM
IC50 (second compound 1 µM): > 10 µM
SMILES: C[C@@H](NC(=O)c1ncnc(N)c1Cl)c1ncc(C(=O)Nc2cc(C(F)(F)F)c(Cl)cn2)s1 + CC(Nc1ccc2c(c1)OCCn1cc(N3C(=O)OCC3C(F)F)nc1-2)C(N)=O
viability, T/C [1]: 105%
viability, T/C [2]: 74.9%
viability, T/C [13]: 73.3%
viability, T/C [14]: 91.9%
viability, T/C [15]: 80.4%
viability, T/C [16]: 97.9%
viability, T/C [3]: 83.9%
viability, T/C [4]: 98.7%
viability, T/C [17]: 101%
viability, T/C [18]: 94.8%
viability, T/C [19]: 97.1%
viability, T/C [20]: 130%
viability, T/C [5]: 62.2%
viability, T/C [6]: 107%
viability, T/C [21]: 69%
viability, T/C [22]: 98.9%
viability, T/C [23]: 95.2%
viability, T/C [24]: 109%
viability, T/C [7]: 72.9%
viability, T/C [8]: 67.8%
viability, T/C [25]: 63.6%
viability, T/C [26]: 77.7%
viability, T/C [27]: 75.2%
viability, T/C [28]: 66%
viability, T/C [9]: 65.5%
viability, T/C [10]: 70.6%
viability, T/C [29]: 78.2%
viability, T/C [30]: 73.5%
viability, T/C [31]: 77.2%
viability, T/C [32]: 70.9%
viability, T/C [11]: 69.4%
viability, T/C [12]: 62.2%
viability, T/C [33]: 56%
viability, T/C [34]: 57.9%
viability, T/C [35]: 69.9%
viability, T/C [36]: 62%
